Experimental data as given in ChEMBL document CHEMBL1201862, “PubChem BioAssay data set” (2004).
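Where inhibition never reached the appropriate level, the endpoint shown equals the highest concentration tested. Otherwise, values were interpolated linearly from a five-concentration, 48-hour dose response in 96-well plates. GI50 = concentration required for 50% inhibition of growth.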 Calls of active or inactive are those of the source. Cut-off read from the data, not from the text of the source: active = GI50 up to about 1.1 µM and inactive = higher.

Assays:
Experiment in all cases: inhibition of tumour cell growth, NCI panel, 48 h
A549 = test system: A549
SF-295 = test system: SF-295
MDA-N = test system: MDA-N
NCI-H522 = test system: NCI-H522
SK-MEL-28 = test system: SK-MEL-28
LOX IMVI = test system: LOX IMVI
A498 = test system: A498
SNB-75 = test system: SNB-75
SF-539 = test system: SF-539
U-251 = test system: U-251
MOLT-4 = test system: MOLT-4
SK-MEL-5 = test system: SK-MEL-5
COLO 205 = test system: COLO 205
CCRF-CEM = test system: CCRF-CEM
UACC-257 = test system: UACC-257
UO-31 = test system: UO-31
Hs-578T = test system: Hs-578T
PC-3 = test system: PC-3
MDA-MB-231 = test system: MDA-MB-231
MDA-MB-435 = test system: MDA-MB-435
NCI-H460 = test system: NCI-H460
IGROV-1 = test system: IGROV-1
Malme-3M = test system: Malme-3M
SW-620 = test system: SW-620
BT-549 = test system: BT-549
NCI/ADR-RES = test system: NCI/ADR-RES
RXF 393 = test system: RXF 393
HCT-15 = test system: HCT-15
SK-MEL-2 = test system: SK-MEL-2
NCI-H226 = test system: NCI-H226
M14 = test system: M14
SK-OV-3 = test system: SK-OV-3
UACC-62 = test system: UACC-62
786-0 = test system: 786-0
SF-268 = test system: SF-268
EKVX = test system: EKVX
T47D = test system: T47D
HL-60 = test system: HL-60
RPMI-8226 = test system: RPMI-8226
OVCAR-3 = test system: OVCAR-3
OVCAR-8 = test system: OVCAR-8
K562 = test system: K562
HOP-92 = test system: HOP-92
HCC 2998 = test system: HCC 2998
OVCAR-4 = test system: OVCAR-4
OVCAR-5 = test system: OVCAR-5
SR = test system: SR
DU-145 = test system: DU-145
CAKI-1 = test system: CAKI-1
SNB-19 = test system: SNB-19
KM12 = test system: KM12
HCT-116 = test system: HCT-116
MCF7 = test system: MCF7
NCI-H23 = test system: NCI-H23
ACHN = test system: ACHN
HOP-62 = test system: HOP-62
SN12C = test system: SN12C
TK-10 = test system: TK-10
HT-29 = test system: HT-29

In the case of `OC1(c2ccc(Cl)cc2)c2ccccc2C2=Nc3ccccc3CN21` (stereo not drawn), the GI50 (A549) is reported as 12.7 µM (inactive), the GI50 (SF-295) is reported as 20.4 µM (inactive) and the GI50 (MDA-N) is reported as > 70 µM (inactive). The GI50 (NCI-H522) was 25.1 µM (inactive), the GI50 (SK-MEL-28) was 29 µM (inactive) and the GI50 (LOX IMVI) was 25.6 µM (inactive). For the same compound, the GI50 (A498) was 27.6 µM (inactive), the GI50 (SNB-75) was 17.8 µM (inactive) and the GI50 (SF-539) was 39.6 µM (inactive). The GI50 (U-251) was 23.7 µM (inactive), the GI50 (MOLT-4) was 61.8 µM (inactive) and the GI50 (SK-MEL-5) was > 46.1 µM (inactive). For the same compound, the GI50 (COLO 205) was > 69.2 µM (inactive), the GI50 (CCRF-CEM) was > 65.9 µM (inactive) and the GI50 (UACC-257) was > 100 µM (inactive). For the same compound, the GI50 (UO-31) was 34.4 µM (inactive), the GI50 (Hs-578T) was 23 µM (inactive) and the GI50 (PC-3) was 45.8 µM (inactive). For the same compound, the GI50 (MDA-MB-231) was 34.6 µM (inactive), the GI50 (MDA-MB-435) was 79.3 µM (inactive) and the GI50 (NCI-H460) was 37.6 µM (inactive). For the same compound, the GI50 (IGROV-1) was 39.2 µM (inactive), the GI50 (Malme-3M) was 30.5 µM (inactive) and the GI50 (SW-620) was 26.9 µM (inactive). The GI50 (BT-549) was > 100 µM (inactive), the GI50 (NCI/ADR-RES) was 25 µM (inactive) and the GI50 (RXF 393) was 21 µM (inactive). For the same compound, the GI50 (HCT-15) was 30.8 µM, the GI50 (SK-MEL-2) was > 51.2 µM (inactive) and the GI50 (NCI-H226) was 37.8 µM (inactive). The GI50 (M14) was > 100 µM (inactive), the GI50 (SK-OV-3) was 38.5 µM (inactive) and the GI50 (UACC-62) was > 86.9 µM (inactive). The GI50 (786-0) was 13.1 µM (inactive), the GI50 (SF-268) was 33.2 µM (inactive) and the GI50 (EKVX) was > 45.2 µM (inactive). For the same compound, the GI50 (T47D) was 45.5 µM (inactive), the GI50 (HL-60) was 18.4 µM (inactive) and the GI50 (RPMI-8226) was 33.4 µM (inactive). The GI50 (OVCAR-3) was 2.96 µM (inactive), the GI50 (OVCAR-8) was 13.2 µM (inactive) and the GI50 (K562) was > 100 µM (inactive). The GI50 (HOP-92) was > 60.3 µM (inactive), the GI50 (HCC 2998) was > 71.4 µM (inactive) and the GI50 (OVCAR-4) was 20.6 µM (inactive). For the same compound, the GI50 (OVCAR-5) was > 75.2 µM (inactive), the GI50 (SR) was 5.93 µM (inactive) and the GI50 (DU-145) was 36.2 µM (inactive). For the same compound, the GI50 (CAKI-1) was 58.3 µM (inactive), the GI50 (SNB-19) was 36.1 µM (inactive) and the GI50 (KM12) was 28 µM (inactive). For the same compound, the GI50 (HCT-116) was 6.9 µM (inactive), the GI50 (MCF7) was 21.9 µM (inactive) and the GI50 (NCI-H23) was > 44.9 µM (inactive). The GI50 (ACHN) was 8.59 µM (inactive), the GI50 (HOP-62) was 12.9 µM (inactive) and the GI50 (SN12C) was 22.2 µM (inactive). The GI50 (TK-10) was > 95.5 µM (inactive) and the GI50 (HT-29) was 14.8 µM (inactive).
In the case of `C[N+](C)(C)CC1Cc2ccccc2C1=O` (stereo not drawn), the GI50 (A549) is reported as > 10 µM (inactive), the GI50 (SF-295) is reported as > 10 µM (inactive) and the GI50 (MDA-N) is reported as 3.72 µM (inactive). The GI50 (NCI-H522) was 2.36 µM (inactive), the GI50 (SK-MEL-28) was 5.58 µM (inactive) and the GI50 (LOX IMVI) was 4.41 µM (inactive). The GI50 (A498) was > 10 µM (inactive), the GI50 (SNB-75) was > 10 µM (inactive) and the GI50 (SF-539) was > 10 µM (inactive). For the same compound, the GI50 (U-251) was > 10 µM (inactive), the GI50 (MOLT-4) was 1.71 µM (inactive) and the GI50 (SK-MEL-5) was > 10 µM (inactive). For the same compound, the GI50 (COLO 205) was 2.93 µM (inactive), the GI50 (CCRF-CEM) was 1.66 µM (inactive) and the GI50 (UACC-257) was > 10 µM (inactive). The GI50 (UO-31) was > 10 µM (inactive), the GI50 (Hs-578T) was > 10 µM (inactive) and the GI50 (PC-3) was > 10 µM (inactive). For the same compound, the GI50 (MDA-MB-231) was > 10 µM (inactive), the GI50 (MDA-MB-435) was > 6.87 µM (inactive) and the GI50 (NCI-H460) was > 10 µM (inactive). For the same compound, the GI50 (IGROV-1) was > 10 µM (inactive), the GI50 (Malme-3M) was 2.11 µM (inactive) and the GI50 (SW-620) was 1.87 µM (inactive). The GI50 (BT-549) was > 10 µM (inactive), the GI50 (NCI/ADR-RES) was > 4.78 µM (inactive) and the GI50 (RXF 393) was > 9.31 µM (inactive). For the same compound, the GI50 (HCT-15) was 4.53 µM, the GI50 (SK-MEL-2) was > 9.14 µM (inactive) and the GI50 (NCI-H226) was > 10 µM (inactive). The GI50 (M14) was 2.75 µM (inactive), the GI50 (SK-OV-3) was > 10 µM (inactive) and the GI50 (UACC-62) was > 10 µM (inactive). The GI50 (786-0) was 3.32 µM (inactive), the GI50 (SF-268) was > 10 µM (inactive) and the GI50 (EKVX) was > 10 µM (inactive). The GI50 (T47D) was 2.51 µM (inactive), the GI50 (HL-60) was 1.56 µM (inactive) and the GI50 (RPMI-8226) was 1.48 µM (inactive). For the same compound, the GI50 (OVCAR-3) was > 5.81 µM (inactive), the GI50 (OVCAR-8) was 1.89 µM (inactive) and the GI50 (K562) was 1.4 µM (inactive). For the same compound, the GI50 (HOP-92) was 3.91 µM (inactive), the GI50 (HCC 2998) was > 10 µM (inactive) and the GI50 (OVCAR-4) was 2.72 µM (inactive). The GI50 (OVCAR-5) was > 10 µM (inactive), the GI50 (SR) was 1.22 µM (inactive) and the GI50 (DU-145) was > 10 µM (inactive). For the same compound, the GI50 (CAKI-1) was > 4.8 µM (inactive), the GI50 (SNB-19) was > 10 µM (inactive) and the GI50 (KM12) was > 10 µM (inactive). The GI50 (HCT-116) was 1.72 µM (inactive), the GI50 (MCF7) was 2.07 µM (inactive) and the GI50 (NCI-H23) was > 10 µM (inactive). For the same compound, the GI50 (ACHN) was > 10 µM (inactive), the GI50 (HOP-62) was > 10 µM (inactive) and the GI50 (SN12C) was > 7.45 µM (inactive). The GI50 (TK-10) was > 8.36 µM (inactive) and the GI50 (HT-29) was 6.38 µM (inactive).
